Measured values from patent publication US9359399B2, “Synthetic peptide amides” (Cara Therapeutics, Inc., priority 2006, dated 2016).

Experiments:
[1] = test system: pruritus induced by GNTI in mice; assay: Pruritus model in mice, GNTI-induced scratching; assay type: in vivo, Swiss Webster mice; conditions: inhibition of scratching
Experimental: (§1) Groups of 10 (and in one case, 11) male Swiss Webster mice (25-30 g) were used. Each animal was weighed and allowed to acclimate for at least one hour in individual, rectangular observation boxes. The tails of mice were immersed for 30 seconds in warm water to dilate tail veins and the animals then received an intravenous injection of either vehicle (saline) or compound (2) (0.01, 0.03, 0.10 and 0.30 mg of free base/kg). Fifteen minutes later, each mouse was given either GNTI dihydrochloride (Tocris) (0.30 mg/kg; 0.25 ml/25 g) or compound 48/80 (Sigma) (50 μg in 0.10 ml saline) subcutaneously behind the neck. The animals were then observed in pairs (occasionally in threes) and the number of hind leg scratching movements directed at the neck was counted for 30 minutes. […]

[2] = test system: acetic acid-induced writhing in mice; assay: Acetic acid-induced writhing assay in mice; assay type: in vivo, ICR mice; conditions: mice
Experimental: 12: 525-562; Ramabadran and Bansinath (1986) Pharm. Res. 3: 263-270]. Intraperitoneal administration of dilute acetic acid solution causes a writhing behavior in mice. A writhe is defined as a contraction of the abdominal muscles accompanied by an extension of the forelimbs and elongation of the body. The number of writhes observed in the presence and absence of test compounds is counted to determine the analgesic activity of the compounds.
Each day a writhing assay was performed, a vehicle control group of mice (n=6-8) that were treated identically to the test group (except that test compound was omitted from the injection dose) was always included and the average total number of writhes in this group used as the absolute reference point defining 0% decrease in pain perception for all other mice receiving a test compound on that day. Specifically, the total number of writhes of each mouse receiving the test compound was converted to % decrease in pain perception according to the following equation:
[formula] Where Wv is the mean number of writhes in vehicle-treated group and Wc is the number of writhes in compound-treated mouse.
Male ICR mice, 23-37 grams in weight, were weighed and placed in individual observation chambers (usually a 4000 ml glass beaker) with a fine layer of SANI-CHIPS rodent bedding at the bottom. […] After administration of the compound or vehicle control, mice were returned to their individual observation chambers awaiting the intraperitoneal administration of acetic acid solution. […] and acetic acid injection, a dose corresponding to 10 ml/kg of a 0.6% (v/v) acetic acid solution was then injected into the right lower quadrant of the abdomen. Immediately after the injection, the mouse was returned to its observation chamber and the recording of the number of writhes begun immediately. The number of writhes was counted over a 15-min period starting from the time of acetic acid injection, the data being collected over three separate 5 minute time periods (0-5 min, 5-10 min, and 10-15 min).
The data were reported as ED50, and Hill coefficient. […] The Hill coefficient is expressed as the arithmetic mean±sem calculated from the values obtained from the animals.
For dose-response analysis, raw data were converted to % maximum possible effect (% MPE) using the formula: % MPE=((test score−vehicle-treated score)/(0−vehicle-treated score))*100. Raw data were analyzed using a one-way ANOVA followed by Dunnett's post-tests. […] Compounds were administered by the intravenous route.

[3] = test system: mechanical hypersensitivity induced by L5/L6 spinal nerve ligation in rats; assay: Spinal nerve ligation (SNL) model of neuropathic pain; assay type: in vivo, rat; conditions: intravenous route
Experimental: The SNL model (Kim and Chung 1992) was used to induce chronic neuropathic pain. The rats were anesthetized with isoflurane, the left L5 transverse process was removed, and the L5 and L6 spinal nerves were tightly ligated with 6-0 silk suture. The wound was then closed with internal sutures and external staples. Fourteen days following SNL, baseline, post-injury and post-treatment values for non-noxious mechanical sensitivity were evaluated using 8 Semmes-Weinstein filaments (Stoelting, Wood Dale, Ill., USA) with varying stiffness (0.4, 0.7, 1.2, 2.0, 3.6, 5.5, 8.5, and 15 g) according to the up-down method (Chaplan et al. 1994). Animals were placed on a perforated metallic platform and allowed to acclimate to their surroundings for a minimum of 30 minutes before testing. The mean and standard error of the mean (SEM) were determined for each paw in each treatment group. Since this stimulus is normally not considered painful, significant injury-induced increases in responsiveness in this test are interpreted as a measure of mechanical allodynia. […] Compound (2) was administered by the intravenous route. FIG. 10 summarizes the results of these experiments.

[4] = test system: pancreatitis-induced abdominal hypersensitivity in rats; assay: Rat pancreatitis model (dibutylin dichloride), abdominal hypersensitivity; assay type: in vivo; conditions: intraperitoneal route
Experimental: Chronic pancreatic inflammation was induced in rats by intravenous administration of dibutylin dichloride (DBTC, Aldrich Milwaukee, Wis.) dissolved in 100% ethanol at a dose of 8 mg/kg under isofluorane anesthesia (2-3 liters/min, 4%/vol until anesthetized, then 2.5%/vol throughout the procedure. Control animals received the same volume of vehicle (100% ethanol) alone. Pancreatitis pain was assessed by determination of abdominal sensitivity to probing the abdomen of rats with a calibrated von Frey filament (4 g). Rats were allowed to acclimate in suspended wire-mesh cages for 30 min before testing. A response was indicated by the sharp withdrawal of the abdomen, licking of abdominal area, or whole body withdrawal. […] The mean occurrence of withdrawal events in each trial is expressed as the number of responses to 10 applications. Rats without inflammation of the pancreas typically display withdrawal frequencies to probing with von Frey filament of 0-1. The animals were allowed to recover for 6 days after DBTC administration prior to any pharmacological manipulations.
The number of positive responses, following abdominal probing (out of a possible 10), were recorded at each time point. […] Raw data were analyzed using a two-way repeated measures ANOVA followed by Bonferroni post-tests. […]

[5] = test system: pruritus induced by compound 48/80 in mice; assay: Pruritus model in mice, compound 48/80-induced scratching; assay type: in vivo, Swiss Webster mice; conditions: inhibition of scratching
Experimental: as §1

[6] = test system: capsaicin-induced ocular pain; assay: Capsaicin-induced ocular pain, palpebral opening in rabbits; assay type: in vivo, albino New Zealand strain rabbits; conditions: 10-30 min. post capsaicin

With `CC(C)C[C@@H](NC(=O)[C@@H](Cc1ccccc1)NC(=O)[C@H](N)Cc1ccccc1)C(=O)N[C@H](CCCCN)C(=O)N1CCC(N)(C(=O)O)CC1` [Compound (2), D-Phe-D-Phe-D-Leu-D-Lys-[ω(4-aminopiperidine-4-carboxylic acid)]-OH] the “GNTI Model ED50 (mg/kg, iv, 15 min post-dose)” value [1] was 0.05 (0.02-0.1) mg/kg, the “dose response in the acetic acid-induced writhing model” value ([2]; intravenously, 0.01 mg/kg to 0.3 mg/kg) was “linear dose response relationship” and the “ED50 (mg/kg, iv, 15 min post-dose)” value ([2]; iv, 15 min post-dose) was 0.07 mg/kg. For the same compound, the “% MPE (180 min post-ED90)” value ([2]; iv, 180 min post-ED90) was 77 ± 5% MPE, the “% MPE (240 min post-ED90)” value ([2]; iv, 240 min post-ED90) was 81 ± 4% MPE and the “% MPE (300 min post-ED90)” value ([2]; iv, 300 min post-ED90) was 84 ± 4% MPE. The “ED50, attenuation of mechanical hypersensitivity (SNL model)” value [3] was 0.38 mg/kg, the “ED50, attenuation of abdominal hypersensitivity (pancreatitis model)” value [4] was 0.03 mg/kg and the “Compound 48/80 Model ED50 (mg/kg, iv, 15 min post-dose)” value [5] was 0.08 (0.04-0.2) mg/kg. For the same compound, the “Mean palpebral opening (% Control)” value ([6]; Table VII, 10 mg/ml, five animals) was 82.7 % Control, the “Mean palpebral opening (% Control)” value ([6]; Table VIII, 1 mg/ml, ten animals) was 60.5 % Control and the “Mean palpebral opening (% Control)” value ([6]; Table VIII, 10 mg/ml, ten animals) was 56.6 % Control. For the same compound, the “Mean palpebral opening (% Control)” value ([6]; Table VIII, 25 mg/ml, ten animals) was 75.5 % Control and the “Mean palpebral opening (% Control)” value ([6]; Table VIII, 50 mg/ml, ten animals) was 87.5 % Control.
